Source: patent US7118895B2, “Process for producing aglycon by using diglycosidase and flavor-improved food containing the aglycon and converting agent to be used in the process” (Amano Enzyme Inc., priority 2000, dated 2006)

Test system: Crude diglycosidase
Assay: Examination of substrate concentration in the conversion into isoflavone aglycons by diglycosidase using soybean materials;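 note: percent of the isoflavone family total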
Assay type: biochemical, Penicillium multicolor IAM7153
Outline: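 Soybean materials (roasted soy flour, soymilk, defatted soybean, concentrated soy protein) at 2–30% (w/v) in 20 mM acetate pH 4.0 were reacted with crude diglycosidase at 55° C with shaking; enzyme solution added was 1.88 AU/mL. Samples taken at 0, 1, 3 and 6 h were ethanol-extracted and analyzed by HPLC.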

Decomposition efficiency: ratio of each glycoside/aglycon within its isoflavone family (roasted soy flour, substrate concentration 2%, heat treatment of enzyme no, reaction time 1 h): not detected | Decomposition efficiency: ratio of each glycoside/aglycon within its isoflavone family (roasted soy flour, substrate concentration 2%, heat treatment of enzyme no, reaction time 3 h): not detected | Decomposition efficiency: ratio of each glycoside/aglycon within its isoflavone family (roasted soy flour, substrate concentration 2%, heat treatment of enzyme no, reaction time 6 h): not detected | Decomposition efficiency: ratio of each glycoside/aglycon within its isoflavone family (roasted soy flour, substrate concentration 2%, heat treatment of enzyme yes, reaction time 6 h): not detected | Decomposition efficiency: ratio of each glycoside/aglycon within its isoflavone family (roasted soy flour, substrate concentration 5%, heat treatment of enzyme no, reaction time 0 h): not detected | Decomposition efficiency: ratio of each glycoside/aglycon within its isoflavone family (roasted soy flour, substrate concentration 5%, heat treatment of enzyme no, reaction time 1 h): not detected | Decomposition efficiency: ratio of each glycoside/aglycon within its isoflavone family (roasted soy flour, substrate concentration 5%, heat treatment of enzyme no, reaction time 3 h): not detected | Decomposition efficiency: ratio of each glycoside/aglycon within its isoflavone family (roasted soy flour, substrate concentration 5%, heat treatment of enzyme no, reaction time 6 h): not detected | Decomposition efficiency: ratio of each glycoside/aglycon within its isoflavone family (roasted soy flour, substrate concentration 5%, heat treatment of enzyme yes, reaction time 6 h): not detected | Decomposition efficiency: ratio of each glycoside/aglycon within its isoflavone family (roasted soy flour, substrate concentration 10%, heat treatment of enzyme no, reaction time 0 h): not detected | Decomposition efficiency: ratio of each glycoside/aglycon within its isoflavone family (roasted soy flour, substrate concentration 10%, heat treatment of enzyme no, reaction time 1 h): not detected | Decomposition efficiency: ratio of each glycoside/aglycon within its isoflavone family (roasted soy flour, substrate concentration 10%, heat treatment of enzyme no, reaction time 3 h): not detected | Decomposition efficiency: ratio of each glycoside/aglycon within its isoflavone family (roasted soy flour, substrate concentration 10%, heat treatment of enzyme no, reaction time 6 h): not detected | Decomposition efficiency: ratio of each glycoside/aglycon within its isoflavone family (roasted soy flour, substrate concentration 10%, heat treatment of enzyme yes, reaction time 6 h): not detected | Decomposition efficiency: ratio of each glycoside/aglycon within its isoflavone family (roasted soy flour, substrate concentration 20%, heat treatment of enzyme no, reaction time 0 h): not detected | Decomposition efficiency: ratio of each glycoside/aglycon within its isoflavone family (roasted soy flour, substrate concentration 20%, heat treatment of enzyme no, reaction time 1 h): not detected | Decomposition efficiency: ratio of each glycoside/aglycon within its isoflavone family (roasted soy flour, substrate concentration 20%, heat treatment of enzyme no, reaction time 3 h): not detected | Decomposition efficiency: ratio of each glycoside/aglycon within its isoflavone family (roasted soy flour, substrate concentration 20%, heat treatment of enzyme no, reaction time 6 h): not detected | Decomposition efficiency: ratio of each glycoside/aglycon within its isoflavone family (roasted soy flour, substrate concentration 20%, heat treatment of enzyme yes, reaction time 6 h): not detected | Decomposition efficiency: ratio of each glycoside/aglycon within its isoflavone family (roasted soy flour, substrate concentration 30%, heat treatment of enzyme no, reaction time 0 h): not detected | Decomposition efficiency: ratio of each glycoside/aglycon within its isoflavone family (roasted soy flour, substrate concentration 30%, heat treatment of enzyme no, reaction time 1 h): not detected | Decomposition efficiency: ratio of each glycoside/aglycon within its isoflavone family (roasted soy flour, substrate concentration 30%, heat treatment of enzyme no, reaction time 3 h): not detected | Decomposition efficiency: ratio of each glycoside/aglycon within its isoflavone family (roasted soy flour, substrate concentration 30%, heat treatment of enzyme no, reaction time 6 h): not detected | Decomposition efficiency: ratio of each glycoside/aglycon within its isoflavone family (roasted soy flour, substrate concentration 30%, heat treatment of enzyme yes, reaction time 6 h): not detected | Decomposition efficiency: ratio of each glycoside/aglycon within its isoflavone family (soymilk, substrate concentration 2%, heat treatment of enzyme no, reaction time 0 h): 28.2% | Decomposition efficiency: ratio of each glycoside/aglycon within its isoflavone family (soymilk, substrate concentration 2%, heat treatment of enzyme no, reaction time 1 h): not detected | Decomposition efficiency: ratio of each glycoside/aglycon within its isoflavone family (soymilk, substrate concentration 2%, heat treatment of enzyme no, reaction time 3 h): not detected | Decomposition efficiency: ratio of each glycoside/aglycon within its isoflavone family (soymilk, substrate concentration 2%, heat treatment of enzyme no, reaction time 6 h): not detected | Decomposition efficiency: ratio of each glycoside/aglycon within its isoflavone family (soymilk, substrate concentration 2%, heat treatment of enzyme yes, reaction time 6 h): 48.2% | Decomposition efficiency: ratio of each glycoside/aglycon within its isoflavone family (soymilk, substrate concentration 5%, heat treatment of enzyme no, reaction time 0 h): 50.6% | Decomposition efficiency: ratio of each glycoside/aglycon within its isoflavone family (soymilk, substrate concentration 5%, heat treatment of enzyme no, reaction time 1 h): 24.6% | Decomposition efficiency: ratio of each glycoside/aglycon within its isoflavone family (soymilk, substrate concentration 5%, heat treatment of enzyme no, reaction time 3 h): 7.5% | Decomposition efficiency: ratio of each glycoside/aglycon within its isoflavone family (soymilk, substrate concentration 5%, heat treatment of enzyme no, reaction time 6 h): not detected | Decomposition efficiency: ratio of each glycoside/aglycon within its isoflavone family (soymilk, substrate concentration 5%, heat treatment of enzyme yes, reaction time 6 h): 43.3% | Decomposition efficiency: ratio of each glycoside/aglycon within its isoflavone family (soymilk, substrate concentration 10%, heat treatment of enzyme no, reaction time 0 h): 41.1% | Decomposition efficiency: ratio of each glycoside/aglycon within its isoflavone family (soymilk, substrate concentration 10%, heat treatment of enzyme no, reaction time 1 h): 26.4% | Decomposition efficiency: ratio of each glycoside/aglycon within its isoflavone family (soymilk, substrate concentration 10%, heat treatment of enzyme no, reaction time 3 h): 10.5% | Decomposition efficiency: ratio of each glycoside/aglycon within its isoflavone family (soymilk, substrate concentration 10%, heat treatment of enzyme no, reaction time 6 h): 4.2% | Decomposition efficiency: ratio of each glycoside/aglycon within its isoflavone family (soymilk, substrate concentration 10%, heat treatment of enzyme yes, reaction time 6 h): 37.0% | Decomposition efficiency: ratio of each glycoside/aglycon within its isoflavone family (soymilk, substrate concentration 20%, heat treatment of enzyme no, reaction time 0 h): 41.3% | Decomposition efficiency: ratio of each glycoside/aglycon within its isoflavone family (soymilk, substrate concentration 20%, heat treatment of enzyme no, reaction time 1 h): 27.8% | Decomposition efficiency: ratio of each glycoside/aglycon within its isoflavone family (soymilk, substrate concentration 20%, heat treatment of enzyme no, reaction time 3 h): 9.4% | Decomposition efficiency: ratio of each glycoside/aglycon within its isoflavone family (soymilk, substrate concentration 20%, heat treatment of enzyme no, reaction time 6 h): 5.9% | Decomposition efficiency: ratio of each glycoside/aglycon within its isoflavone family (soymilk, substrate concentration 20%, heat treatment of enzyme yes, reaction time 6 h): 38.8% | Decomposition efficiency: ratio of each glycoside/aglycon within its isoflavone family (soymilk, substrate concentration 30%, heat treatment of enzyme no, reaction time 0 h): 43.0% | Decomposition efficiency: ratio of each glycoside/aglycon within its isoflavone family (soymilk, substrate concentration 30%, heat treatment of enzyme no, reaction time 1 h): 33.1% | Decomposition efficiency: ratio of each glycoside/aglycon within its isoflavone family (soymilk, substrate concentration 30%, heat treatment of enzyme no, reaction time 3 h): 15.9% | Decomposition efficiency: ratio of each glycoside/aglycon within its isoflavone family (soymilk, substrate concentration 30%, heat treatment of enzyme no, reaction time 6 h): 7.7% | Decomposition efficiency: ratio of each glycoside/aglycon within its isoflavone family (soymilk, substrate concentration 30%, heat treatment of enzyme yes, reaction time 6 h): 37.5%
SMILES: COc1cc2c(=O)c(-c3ccc(O)cc3)coc2cc1O[C@@H]1O[C@H](COC(=O)CC(=O)O)[C@@H](O)[C@H](O)[C@H]1O [malonylglycitin, 6″-O-malonylglycitin]
